According to ChEMBL document CHEMBL1201862, “PubChem BioAssay data set” (2004):
Active and inactive are the calls of the source.

How the values were obtained:
[1] = target: T1, Protein RecA (Mycobacterium tuberculosis, UniProt P9WHJ3); experiment: Fluorescence Cell-Free Homogeneous Dose Retest to Identify Inhibitors of RecA-Intein Splicing Activity. [Related pubchem assays (depositor defined):AID2097, AID2223, AID489010, AID492950]; type: functional
T1 sequence (P9WHJ3 whole entry): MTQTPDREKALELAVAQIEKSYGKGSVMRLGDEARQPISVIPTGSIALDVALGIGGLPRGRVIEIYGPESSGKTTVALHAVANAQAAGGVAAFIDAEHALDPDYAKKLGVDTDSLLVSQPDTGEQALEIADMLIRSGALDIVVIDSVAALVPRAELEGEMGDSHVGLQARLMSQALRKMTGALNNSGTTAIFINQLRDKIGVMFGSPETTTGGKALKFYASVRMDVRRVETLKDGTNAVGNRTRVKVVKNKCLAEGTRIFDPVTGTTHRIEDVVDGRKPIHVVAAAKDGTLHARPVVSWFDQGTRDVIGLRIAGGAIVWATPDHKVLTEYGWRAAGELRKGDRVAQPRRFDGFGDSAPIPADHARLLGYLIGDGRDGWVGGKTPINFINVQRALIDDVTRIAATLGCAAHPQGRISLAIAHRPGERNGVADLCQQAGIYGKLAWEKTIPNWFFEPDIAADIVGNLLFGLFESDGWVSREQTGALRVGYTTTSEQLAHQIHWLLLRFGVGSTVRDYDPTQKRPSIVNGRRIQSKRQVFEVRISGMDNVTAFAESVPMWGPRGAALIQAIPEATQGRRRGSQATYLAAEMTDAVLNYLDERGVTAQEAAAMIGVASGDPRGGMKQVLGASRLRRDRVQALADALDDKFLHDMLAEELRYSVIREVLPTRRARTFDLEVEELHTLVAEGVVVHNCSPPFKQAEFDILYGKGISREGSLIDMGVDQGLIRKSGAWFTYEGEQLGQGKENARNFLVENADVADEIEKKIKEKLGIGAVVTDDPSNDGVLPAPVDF

[2] = target: Prothrombin (Homo sapiens, UniProt P00734); experiment: Thrombin 1536 HTS Dose Response Confirmation. [Related pubchem assays: 1046 (Thrombin 1536 HTS; hits were confirmed in this assay)]; type: functional
[3] = target: Sphingosine 1-phosphate receptor 1 (Homo sapiens, UniProt P21453); type: functional;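 note: Tango beta-arrestin reporter U2OS cells stimulated with S1P near its EC80; inhibitor potency meaning antagonism of receptor activation by the natural agonist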
[4] = target: T2, Sphingosine 1-phosphate receptor 4 (Homo sapiens, UniProt O95977); experiment: Fluorescence dose response cell-based high throughput screening assay for antagonists of the Sphingosine 1-Phosphate Receptor 4 (S1P4). [Related pubchem assays: 1524 (Confirmation in triplicates.), 1510 (Primary screen.)]; type: functional
T2 sequence (O95977 whole entry): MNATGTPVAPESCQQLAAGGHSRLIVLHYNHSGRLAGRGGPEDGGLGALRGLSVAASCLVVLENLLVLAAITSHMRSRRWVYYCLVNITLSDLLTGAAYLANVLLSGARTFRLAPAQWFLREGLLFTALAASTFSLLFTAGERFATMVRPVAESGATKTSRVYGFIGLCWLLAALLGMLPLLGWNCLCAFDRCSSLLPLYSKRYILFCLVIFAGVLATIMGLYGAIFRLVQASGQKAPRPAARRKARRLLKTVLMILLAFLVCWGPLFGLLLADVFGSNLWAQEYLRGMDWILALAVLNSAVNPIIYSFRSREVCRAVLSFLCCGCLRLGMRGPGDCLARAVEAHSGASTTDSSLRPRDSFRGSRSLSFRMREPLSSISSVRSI

[5] = target: T3, Replicative DNA helicase DnaB (Mycobacterium tuberculosis, UniProt P9WMR3); experiment: DnaB intein splicing inhibitors, dose response, biochemical, cell-free fluorescence (AID 449749); type: functional
T3 sequence (P9WMR3 whole entry): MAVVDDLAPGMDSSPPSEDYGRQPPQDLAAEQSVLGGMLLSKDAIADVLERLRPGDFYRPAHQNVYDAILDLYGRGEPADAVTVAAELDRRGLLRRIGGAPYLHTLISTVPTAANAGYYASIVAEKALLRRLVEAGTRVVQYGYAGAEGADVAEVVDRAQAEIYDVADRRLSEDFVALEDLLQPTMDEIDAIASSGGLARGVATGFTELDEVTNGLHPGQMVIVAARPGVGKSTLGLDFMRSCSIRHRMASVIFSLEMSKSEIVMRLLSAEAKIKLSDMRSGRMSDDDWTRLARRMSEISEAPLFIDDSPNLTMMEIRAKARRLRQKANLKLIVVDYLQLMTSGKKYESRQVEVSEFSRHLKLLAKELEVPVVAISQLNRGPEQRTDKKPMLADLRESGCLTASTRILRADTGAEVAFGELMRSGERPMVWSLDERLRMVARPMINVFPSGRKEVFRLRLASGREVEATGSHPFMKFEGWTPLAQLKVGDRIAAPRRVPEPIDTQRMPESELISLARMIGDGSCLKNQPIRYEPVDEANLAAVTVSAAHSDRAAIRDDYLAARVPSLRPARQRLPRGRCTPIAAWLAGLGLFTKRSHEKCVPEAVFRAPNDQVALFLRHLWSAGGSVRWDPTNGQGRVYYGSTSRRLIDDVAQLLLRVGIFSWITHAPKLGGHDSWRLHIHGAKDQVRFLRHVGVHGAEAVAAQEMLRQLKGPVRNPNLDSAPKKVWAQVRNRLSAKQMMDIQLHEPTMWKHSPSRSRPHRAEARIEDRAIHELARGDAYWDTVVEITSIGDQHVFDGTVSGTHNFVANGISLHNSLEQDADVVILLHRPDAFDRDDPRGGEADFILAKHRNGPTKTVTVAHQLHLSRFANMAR

[6] = Luminescent dose response cell-based high throughput screening assay for inhibitors of the Janus kinase 2 mutant JAK2V617F. [Related pubchem assays: 1446 (Primary screen.), 1521 (Confirmation assay.), 1486 (Counter screen.)]; type: functional
[7] = target: T4, Aspartyl aminopeptidase (Plasmodium falciparum 3D7, UniProt Q8I2J3); experiment: Counterscreen for inhibitors of M1 and M17 aminopeptidases: QFRET-based biochemical high throughput dose response assay for inhibitors of the Plasmodium falciparum M18 Aspartyl Aminopeptidase (PFM18AAP). [Related PubChem assays: 1619 (Screening assay (M17LAP inhibitors).), 1445 (Screening assay (M1AAP inhibitors).)]
T4 sequence (Q8I2J3 whole entry): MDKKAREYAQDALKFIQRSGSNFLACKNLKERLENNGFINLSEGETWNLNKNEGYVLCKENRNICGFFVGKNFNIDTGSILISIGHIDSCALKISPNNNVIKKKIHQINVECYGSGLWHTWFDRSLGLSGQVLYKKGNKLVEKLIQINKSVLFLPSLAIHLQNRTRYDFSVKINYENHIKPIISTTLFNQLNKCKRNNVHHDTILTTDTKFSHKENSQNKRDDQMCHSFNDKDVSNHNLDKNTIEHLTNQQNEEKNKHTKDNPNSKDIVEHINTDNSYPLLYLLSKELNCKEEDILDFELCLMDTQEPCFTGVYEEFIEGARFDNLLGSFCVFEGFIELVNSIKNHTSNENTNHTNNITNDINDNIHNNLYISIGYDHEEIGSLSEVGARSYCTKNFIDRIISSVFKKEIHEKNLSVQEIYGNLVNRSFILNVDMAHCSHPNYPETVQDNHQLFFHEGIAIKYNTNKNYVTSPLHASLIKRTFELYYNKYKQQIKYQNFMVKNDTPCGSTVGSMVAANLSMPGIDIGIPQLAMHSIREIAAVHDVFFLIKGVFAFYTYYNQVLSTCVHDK

[8] = target: Procathepsin L (Homo sapiens, UniProt P07711); experiment: CTSL1 protease inhibition – biochemical, QFRET, 1536-well, counter-screen for M1/M17 aminopeptidase inhibitor project, dose response (AID 2214)
[9] = target: T5, Leucine aminopeptidase (Plasmodium falciparum 3D7, UniProt Q8IL11); experiment: P. falciparum M17LAP inhibitors, primary screen, biochemical, fluorogenic H-Leu-NHMec substrate, 1536-well (AID 1619); type: functional
T5 sequence (Q8IL11 whole entry): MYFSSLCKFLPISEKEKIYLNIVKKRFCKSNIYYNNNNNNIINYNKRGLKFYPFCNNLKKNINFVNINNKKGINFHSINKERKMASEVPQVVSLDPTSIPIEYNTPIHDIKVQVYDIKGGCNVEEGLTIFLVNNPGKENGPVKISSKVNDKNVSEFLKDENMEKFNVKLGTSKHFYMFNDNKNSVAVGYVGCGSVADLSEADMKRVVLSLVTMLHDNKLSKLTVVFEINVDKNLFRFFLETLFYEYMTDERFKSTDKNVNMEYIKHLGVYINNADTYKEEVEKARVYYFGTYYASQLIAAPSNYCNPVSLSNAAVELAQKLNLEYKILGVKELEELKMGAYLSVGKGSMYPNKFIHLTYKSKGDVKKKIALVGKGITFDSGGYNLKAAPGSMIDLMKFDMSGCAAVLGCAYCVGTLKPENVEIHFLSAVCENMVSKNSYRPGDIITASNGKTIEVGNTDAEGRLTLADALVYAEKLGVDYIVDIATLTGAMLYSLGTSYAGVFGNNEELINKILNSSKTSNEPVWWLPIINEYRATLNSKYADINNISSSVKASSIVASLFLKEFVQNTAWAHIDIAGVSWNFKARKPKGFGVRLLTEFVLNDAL

[10] = tested on: H4; experiment: Luminescence Cell-Based Dose Response HTS to Identify Activators of 5'UTR Stem-Loop Driven Prion Protein mRNA Translation in H4 Neuroglioblastoma Cells. [Related pubchem assays: 1829 (Project Summary), 1814 (Primary HTS)]; type: functional; settings: Homo sapiens
[11] = Luminescence Cell-Based Dose Response HTS to Identify Activators of Luciferase Translation or Activity in H4 […] Cells. [Related pubchem assays: 1829 (Project Summary), 1814 (Primary HTS)]; type: functional
[12] = Luminescence Cell-Based Dose Confirmation to Identify Activators of 5'UTR Stem-Loop Driven Alpha-Synuclein mRNA Translation in H4 Neuroglioblastoma Cells. [Related pubchem assays: 1829 (Project Summary), 1814 (Primary HTS)]; type: functional
[13] = Luminescence Cell-Based Dose Response to Identify Activators of 5'UTR Stem-Loop Driven Prion Protein mRNA Translation in H4-C Neuroglioblastoma Cells. [Related pubchem assays: 1829 (Project Summary), 1814 (Primary HTS)]; type: functional
[14] = Luminescence Cell-Based Dose Response to Identify Activators of Luciferase Translation or Activity in H4-C Neuroglioblastoma Cells. [Related pubchem assays: 1829 (Project Summary), 1814 (Primary HTS)]; type: functional
[15] = Luminescence Cell-Based Dose Confirmation HTS to Identify Activators of 5'UTR Stem-Loop Driven Alpha-Synuclein mRNA Translation in H4 Neuroglioblastoma Cells. [Related pubchem assays: 1829 (Project Summary), 1814 (Primary HTS)]; type: functional
[16] = target: Lytic switch protein BZLF1 (Epstein-Barr virus (strain B95-8) (HHV-4) (Human herpesvirus 4), UniProt P03206); experiment: inhibition of BZLF1 ZTA DNA binding – biochemical, fluorescence polarization, Epstein-Barr virus, 1536-well, counter-screen for EBNA-1 inhibitor project, dose response (AID 2377); parameters: species or system human gammaherpesvirus 4;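 note: fluorescence polarization of Cy5-labelled ZRE DNA probe bound by purified Zta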
[17] = target: Epstein-Barr nuclear antigen 1 (Epstein-Barr virus (strain B95-8) (HHV-4) (Human herpesvirus 4), UniProt P03211); experiment: inhibition of EBV nuclear antigen 1 DNA binding – biochemical, fluorescence polarization, 1536-well, dose response (AID 2381); parameters: species or system human gammaherpesvirus 4;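 note: fluorescence polarization of a Cy5 DNA probe bound by EBNA-1 protein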
[18] = tested on: Vero; experiment: mammalian cell viability reduction – secondary assay, cytotoxicity control for West Nile virus antiviral project, dose response (AID 1650); type: functional; settings: Chlorocebus sabaeus
[19] = target: T6, Ubiquitin-conjugating enzyme E2 N (Homo sapiens, UniProt P61088); type: functional;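 note: Dose-response confirmation in a TR-FRET assay detecting UBC13-driven polyubiquitin chain formation, inhibition measured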
T6 sequence (P61088 whole entry): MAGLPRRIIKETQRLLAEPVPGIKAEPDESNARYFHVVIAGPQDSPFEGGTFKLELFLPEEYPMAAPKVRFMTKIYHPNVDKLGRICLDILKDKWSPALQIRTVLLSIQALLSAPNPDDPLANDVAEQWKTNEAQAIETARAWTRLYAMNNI

[20] = viability loss in THP-1 monocytes – THP-1 cells, cytotoxicity control for Vif-APOBEC3G degradation inhibitor project, dose response (AID 1117359); type: functional; settings: THP-1
[21] = HIV-1 Vif–A3G interaction blockers – biochemical, TR-FRET, GST-Vif 1-94, biotin-A3G peptide, dose response retest, primary screen (AID 1117319); type: functional;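 note: TR-FRET signal of purified GST-Vif binding a biotinylated A3G peptide; inhibitors lower the FRET signal by blocking Vif and A3G binding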
[22] = target: T7, Polyadenylate-binding protein 1 (Homo sapiens, UniProt P11940); experiment: MLLE domain peptide-binding blockers, IC50 – biochemical, fluorescence polarization, FITC-PAM2 peptide, dose response (AID 602259); type: functional; settings: read-out: IC50_Mean
[23] = target: T7, Polyadenylate-binding protein 1; experiment: MLLE binding blockers, Cy5 peptide tracer – biochemical, fluorescence polarization, Cy5-PAM2 peptide, secondary, miRNA deadenylation inhibitor project, dose response (AID 602260); type: functional; settings: read-out: IC50_Mean

Sequence of Epstein-Barr nuclear antigen 1 (P03211 whole entry): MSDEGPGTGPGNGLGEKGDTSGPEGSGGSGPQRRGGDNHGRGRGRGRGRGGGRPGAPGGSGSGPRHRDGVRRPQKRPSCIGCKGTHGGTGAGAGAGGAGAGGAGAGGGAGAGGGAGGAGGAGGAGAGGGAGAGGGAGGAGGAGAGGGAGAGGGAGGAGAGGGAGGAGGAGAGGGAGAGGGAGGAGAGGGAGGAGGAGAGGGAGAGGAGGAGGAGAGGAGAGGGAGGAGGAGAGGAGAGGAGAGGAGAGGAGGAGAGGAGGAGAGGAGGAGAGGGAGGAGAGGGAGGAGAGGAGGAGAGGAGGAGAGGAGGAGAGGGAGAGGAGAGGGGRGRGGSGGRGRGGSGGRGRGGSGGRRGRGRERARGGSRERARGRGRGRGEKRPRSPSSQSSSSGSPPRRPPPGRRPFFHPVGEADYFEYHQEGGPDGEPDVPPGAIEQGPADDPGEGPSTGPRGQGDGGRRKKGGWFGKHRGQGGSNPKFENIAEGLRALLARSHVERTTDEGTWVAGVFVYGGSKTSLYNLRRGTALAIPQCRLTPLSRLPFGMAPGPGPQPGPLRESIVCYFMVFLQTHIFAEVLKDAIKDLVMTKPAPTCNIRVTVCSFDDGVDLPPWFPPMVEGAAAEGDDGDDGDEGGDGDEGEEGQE
Sequence of Lytic switch protein BZLF1 (P03206 whole entry): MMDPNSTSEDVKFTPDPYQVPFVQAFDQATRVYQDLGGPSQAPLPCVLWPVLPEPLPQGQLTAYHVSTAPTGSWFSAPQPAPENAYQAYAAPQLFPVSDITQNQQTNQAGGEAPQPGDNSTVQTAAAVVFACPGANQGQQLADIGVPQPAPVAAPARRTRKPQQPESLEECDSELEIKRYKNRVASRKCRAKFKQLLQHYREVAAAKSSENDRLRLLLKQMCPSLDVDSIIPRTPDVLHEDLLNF
T7 sequence (P11940 whole entry, the tested form may be a part): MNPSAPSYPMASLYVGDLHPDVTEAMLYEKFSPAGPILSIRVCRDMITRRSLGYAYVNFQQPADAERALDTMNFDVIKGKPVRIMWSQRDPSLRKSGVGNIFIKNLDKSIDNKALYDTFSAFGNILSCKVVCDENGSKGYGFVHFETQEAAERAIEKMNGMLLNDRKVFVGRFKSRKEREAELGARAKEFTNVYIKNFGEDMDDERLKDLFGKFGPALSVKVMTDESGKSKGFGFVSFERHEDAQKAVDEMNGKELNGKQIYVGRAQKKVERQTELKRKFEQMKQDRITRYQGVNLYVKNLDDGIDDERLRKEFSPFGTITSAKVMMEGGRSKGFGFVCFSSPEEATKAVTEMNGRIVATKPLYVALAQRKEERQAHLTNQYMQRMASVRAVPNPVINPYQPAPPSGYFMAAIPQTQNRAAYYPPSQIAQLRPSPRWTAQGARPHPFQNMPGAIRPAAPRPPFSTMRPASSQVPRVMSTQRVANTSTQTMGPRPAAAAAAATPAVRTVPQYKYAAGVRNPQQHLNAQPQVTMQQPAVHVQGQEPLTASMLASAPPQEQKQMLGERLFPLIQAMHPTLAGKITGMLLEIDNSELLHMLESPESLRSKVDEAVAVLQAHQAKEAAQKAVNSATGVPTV
Sequence of Procathepsin L (P07711 whole entry): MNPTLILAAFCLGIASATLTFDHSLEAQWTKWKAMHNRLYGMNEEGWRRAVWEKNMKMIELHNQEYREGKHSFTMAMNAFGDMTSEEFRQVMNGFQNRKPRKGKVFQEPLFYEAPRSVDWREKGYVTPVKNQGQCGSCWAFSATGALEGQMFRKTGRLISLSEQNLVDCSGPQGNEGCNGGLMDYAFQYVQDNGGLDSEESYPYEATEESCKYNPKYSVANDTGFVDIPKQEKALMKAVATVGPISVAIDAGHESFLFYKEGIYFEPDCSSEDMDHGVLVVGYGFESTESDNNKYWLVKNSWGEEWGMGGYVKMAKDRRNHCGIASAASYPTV
Sequence of Sphingosine 1-phosphate receptor 1 (P21453 whole entry): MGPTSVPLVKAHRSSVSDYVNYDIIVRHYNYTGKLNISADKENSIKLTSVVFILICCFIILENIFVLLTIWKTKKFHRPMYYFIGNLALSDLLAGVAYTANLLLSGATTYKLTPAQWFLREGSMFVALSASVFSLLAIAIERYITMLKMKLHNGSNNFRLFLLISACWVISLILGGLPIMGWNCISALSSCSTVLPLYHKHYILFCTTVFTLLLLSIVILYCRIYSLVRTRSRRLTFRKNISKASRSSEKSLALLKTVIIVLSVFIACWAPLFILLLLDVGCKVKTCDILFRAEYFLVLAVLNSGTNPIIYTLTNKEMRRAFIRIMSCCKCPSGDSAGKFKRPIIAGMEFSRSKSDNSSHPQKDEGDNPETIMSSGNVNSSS

CCC(C)[C@@H](NC(=O)OC(C)(C)C)c1nnc(S(=O)(=O)Cc2cccc(C)c2)o1 (stereo partly drawn)
EC50 [1]: 2.5 µM (active)
IC50 [2]: 3.23 µM (active)
IC50 [3]: > 49.8 µM (not active)
IC50 [4]: 2.61 µM (active)
AC50 [5]: 2.31 µM (active)
IC50 [6]: 0.826 µM (active)

COc1cc(NC(=O)CSc2nc3cc(C)ccc3cc2C)c(C(=O)O)cc1OC
IC50 [7]: > 73.5 µM (not active)
IC50 [8]: > 59.6 µM (not active)
IC50 [9]: 1.93 µM (active)

COc1ccc(/C=C2\SC(=O)N(CCNC(=O)Cn3cnnn3)C2=O)cc1
EC50 [10]: 0.122 µM (active)
EC50 [11]: 33.3 µM (active)
EC50 [12]: 0.926 µM (active)
EC50 [13]: 0.533 µM (active)
EC50 [14]: 0.405 µM (active)
EC50 [15]: 2.28 µM (active)

COc1cc(NC(=O)COC(=O)/C=C/c2ccc(Cl)cc2Cl)cc(OC)c1
IC50 [16]: > 111 µM (not active)
IC50 [17]: 16.1 µM (not active)

CCCN(CCC)CCCNC(=O)c1cc2c(=O)n(CC)c3ccccc3c2s1
CC50 [18]: 18.8 µM (active)
IC50 [19]: > 20 µM (inactive)

O=C(N/C(=C/c1ccc(Br)cc1)c1nc2ccccc2[nH]1)c1ccco1
IC50 [16]: 111 µM (not active)
IC50 [17]: 20 µM (not active)

Cc1c(O)n(-c2ccc(F)cc2)c(SCC(=O)Nc2ccc3c4c(cccc24)CC3)nc1=O
CC50 [20]: > 40 µM (active)
IC50 [7]: > 73.5 µM (not active)
IC50 [8]: > 59.6 µM (not active)
IC50 [21]: > 100 µM (active)
IC50 [22]: > 66 µM (inactive)
IC50 [9]: 6.36 µM (active)
IC50 [23]: > 66 µM (inactive)

O=C(N/N=C/c1ccccc1F)c1csc2c1CCCC2
EC50 [11]: < 0.1 µM (inconclusive)
EC50 [12]: 0.227 µM (active)
EC50 [13]: 0.264 µM (active)
EC50 [14]: 0.323 µM (active)
EC50 [15]: < 0.1 µM (active)
